Data on 25 compounds can be found in patent US20180305345A1 (priority 2015, published 2018).

Structures are written as SMILES.

The subject of series [1] is VSVΔ51 in 786-0 cells. The series is classed as cell-based, human.
Series [2] relates to VSVΔ51. To be noted: cited from earlier work.
In series [3] the test system is MG1-eGFP in 786-0 cells. The series is classed as cell-based, human.
For series [4] the following is noted: mouse; for Plasma stab. % remaning at 3 hrs: Balb/c, pH 7.4.
The subject of series [5] is VSVΔ51-GFP in CT26 murine colon cancer tumors. Type of series: cell-based, mouse.
Series [6] deals with oncolytic HSV-1 expressing GFP in 786-0 cancer cells. Type of series: cell-based, human.
Series [7] concerns ICPO-null HSV-N212eGFP in 786-0 cells. The series is classed as cell-based, human. The following applies: MOI 0.01, 48 h after infection.
Series [8] has as its system 786-0 cells. The following applies: human.
The conditions of series [9]: female, Balb/c, mouse, in vivo.
Series [10] can be described thus: physchem. To be noted: buffer, pH 7.4.
A short description of series [11]: physchem. The following applies: buffer.
Series [12] has as its system VSVΔ51-GFP in normal mouse brain, lung and spleens.
Series [13] concerns VSVΔ51-FLuc in CT26 tumors. On the set-up: species or system Balb/c mice. The following applies: mouse, in vivo.

Broadly, the half-life is the time needed for the level to fall by half in the phase considered. A low value points to fast loss. With `O=C1OC(c2ccccc2)C(Cl)=C1Cl` (centres unmarked) [Compound 1, 3,4-dichloro-5-phenyl-2,5-dihydrofuran-2-one, reference compound], in series [1], the “enhancement of viral titers after pre-incubation of compound in media” value is listed as “did not lead to robust enhancement of viral titers”. For the same compound, the “increase of virus output” value in series [2] was ≤ 1,000 fold. The “GFP counts, MG1-eGFP” value in [3] is on record as “increased GFP counts”. The “Plasma stab. % remaning at 3 hrs” value in series [4] was 0%. For the same compound, the “VSVΔ51-GFP titers / replication in tumor specimens” value in series [5] is reported as “enhanced”. In [6], the “growth of oncolytic HSV-1 expressing GFP” value is “increased growth”. For the same compound, the “GFP counts, HSV-N212eGFP” value in series [7] was “increased GFP counts”. The compound further had an LD50 in series [8] of 79 µM. Also, the “dose at which toxicity starts” value in series [9] (ip) is given as ≥ 10 mg/kg. For the same compound, the half-life is 28.8 min in series [10] and < 5 min in [11].
Turning to `O=C1OC(c2ccccc2)C(Br)=C1Br` (centres unmarked) [Compound 2], the “Plasma stab. % remaning at 3 hrs” value in series [4] is listed as 0%. This compound also showed an LD50 in series [8] of 87 µM. In [11], the half-life is < 5 min.
Take `O=C1OC(c2ccccc2)C(NCc2ccccc2)=C1Cl` (centres unmarked) [Compound 3]: the “Plasma stab. % remaning at 3 hrs” value in series [4] is 65.6 ± 6.5%. In [8], this compound yielded an LD50 of 140 µM.
The like results for `CC(C)CNC1=C(Cl)C(=O)OC1c1ccccc1` (centres unmarked) [Compound 4] were, in that order, 0% and 90 µM.
For `O=C1OCC(Cl)=C1Cl` [Compound 5, 3,4-Dichloro-5H-furan-2-one], the “Plasma stab. % remaning at 3 hrs” value in series [4] is on record as 0%. Further, the LD50 in [8] is 41 µM. In addition, the half-life in [11] is < 5 min.
Consider `COC1OC(=O)C(Cl)=C1Cl` (centres unmarked) [Compound 6], for which the “Plasma stab. % remaning at 3 hrs” value in series [4] was 0%. The compound also returned an LD50 in series [8] of 73 µM. The half-life in series [11] is < 5 min.
The like results for `C#CCOC1OC(=O)C(Cl)=C1Cl` (centres unmarked) [Compound 7] were, in that order, 0%, 52 µM and < 5 min.
In the case of `O=c1[nH]n(-c2ccccc2)c(Cl)c1Cl` [Compound 8], the “Plasma stab. % remaning at 3 hrs” value in series [4] came to 88.3 ± 9.3%. Also, the LD50 in [8] is >180 µM.
For the compound `O=C1NC(O)C(Cl)=C1Cl` (centres unmarked) [Compound 9], in series [4], the “Plasma stab. % remaning at 3 hrs” value worked out at 0% and the “stability in the plasma assay” value is on record as “remarkably improved stability”. Moreover, the LD50 in series [8] came to 148 µM. This compound also displayed a half-life in series [11] of 117 min.
Take `O=C1C(Cl)=C(Cl)C(O)N1Cc1ccccc1` (stereo not drawn) [Compound 10, α,β-dichloro-γ-hydroxy-N-benzyl-crotonic lactam]: the “GFP counts, MG1-eGFP” value in [3] is “increased GFP counts”. In addition, in series [4], the “Plasma stab. % remaning at 3 hrs” value was 19.8 ± 0.4% and the “stability in the plasma assay” value is “remarkably improved stability”. For the same compound, the “growth of oncolytic HSV-1 expressing GFP” value in [6] was “increased growth”. For the same compound, in [7], the “GFP counts, HSV-N212eGFP” value is “increased GFP counts”. The same compound registered an LD50 in series [8] of 67 µM. In addition, the “dose up to which well tolerated” value in series [9] (ip) is ≤ 50 mg/kg. The same compound showed a half-life in [11] of 32 min.
In the case of `O=C1C(Cl)=C(Cl)CN1Cc1ccccc1` [Compound 11], the “Plasma stab. % remaning at 3 hrs” value in series [4] was found to be 42.5 ± 9.6%. In addition, the LD50 in series [8] came out at 332 µM. For the same compound, the half-life in [11] came to 64 min.
Consider `COC1C(Cl)=C(Cl)C(=O)N1Cc1ccccc1` (centres unmarked) [Compound 12], for which, in series [4], the “Plasma stab. % remaning at 3 hrs” value is listed as 47.6 ± 1.4%. This compound showed an LD50 in series [8] of 206 µM. Further, the half-life in series [11] is 118 min.
For `CC(=O)OC1C(Cl)=C(Cl)C(=O)N1Cc1ccccc1` (centres unmarked) [Compound 13], in that order: 0%, 61 µM and 21 min.
The like results for `O=C1C(Cl)=C(Cl)C(=O)N1Cc1ccccc1` [Compound 14] were, in that order, 70.2 ± 8.4%, 104 µM and < 5 min.
As to `O=C1C(Cl)=C(Cl)C(O)(c2ccccc2)N1Cc1ccccc1` (centres unmarked) [Compound 15], in [4], the “Plasma stab. % remaning at 3 hrs” value is recorded as 14.9 ± 7.1%. The compound further displayed an LD50 in series [8] of 66 µM. The compound also returned a half-life in series [11] of 340 min.
As for `O=C1C=CC(O)N1Cc1ccccc1` (centres unmarked) [Compound 16], the “Plasma stab. % remaning at 3 hrs” value in series [4] stood at 98.2 ± 3.7%. Besides, the LD50 in series [8] is >360 µM.
For `CC1=C(C)C(O)N(Cc2ccccc2)C1=O` (centres unmarked) [Compound 17], in that order: 82.0 ± 10.2% and >360 µM.
In the case of `CCC1=C(Cl)C(=O)N(Cc2ccccc2)C1O` (centres unmarked) [Compound 18], the LD50 in [8] was >360 µM.
Still for that read-out and setting: the result for `O=C1C(Cl)=C(c2ccccc2)C(O)N1Cc1ccccc1` (centres unmarked) [Compound 19] reads 250 µM.
Consider `O=C1c2ccccc2C(O)N1Cc1ccccc1` (centres unmarked) [Compound 20], for which the “Plasma stab. % remaning at 3 hrs” value in [4] came out at 102.9 ± 1.6%. Moreover, in series [8], the LD50 is >360 µM.
The like results for `CC(=O)NCCSC1=C(Cl)C(=O)N(Cc2ccccc2)C1O` (centres unmarked) [Compound 21] were, in that order, 102.7 ± 10.8% and >90 µM.
Turning to `O=C1C(Cl)=C(Cl)C(O)N1C1CC1` (centres unmarked) [Compound 25, 3,4-dichloro-1-cyclopropyl-5-hydroxy-1H-pyrrol-2(5H)-one], the “Plasma stab. % remaning at 3 hrs” value in series [4] was found to be 54.8 ± 3.6%. In series [8], the LD50 was 127 µM. In [11], the half-life was found to be 53 min.
For `O=C1C(Cl)=C(Cl)C(O)N1CCN1CCOCC1` (centres unmarked) [Compound 28, 3,4-dichloro-5-hydroxy-1-(2-morpholinoethyl)-1H-pyrrol-2(5H)-one], the “GFP counts, MG1-eGFP” value in [3] is given as “increased GFP counts”. In series [4], the “Plasma stab. % remaning at 3 hrs” value stood at 38.9 ± 5.2%. Besides, the “enhancement of VSVΔ51 output in tumor specimens” value in series [5] is recorded as ~100 fold. Besides, in [12], the “impact on VSVΔ51 in normal tissue specimens” value is “little to no impact”. Besides, the “tumor-specific viral replication (luciferase activity, IVIS)” value in [13] is “significantly enhanced”. For the same compound, the “GFP counts, HSV-N212eGFP” value in series [7] is on record as “increased GFP counts”. The compound also yielded an LD50 in [8] of 153 µM. Also, the “tolerated dose relative to parent compound 1” value in series [9] is given as > 10 ×. Besides, the “dose up to which well tolerated” value in series [9] (ip) is “up to 100 mg/kg”. The compound further yielded a half-life in series [11] of 96 min.
For the compound `O=C1C(Cl)=C(Cl)C(O)N1CCc1ccccc1` (centres unmarked) [Compound 29, 3,4-dichloro-5-hydroxy-1-phenethyl-1H-pyrrol-2(5H)-one], the “GFP counts, MG1-eGFP” value in series [3] is “increased GFP counts”. The “Plasma stab. % remaning at 3 hrs” value in series [4] worked out at 57.6 ± 6.6%. The “GFP counts, HSV-N212eGFP” value in series [7] is on record as “increased GFP counts”. This compound also came in with an LD50 in series [8] of 74 µM. In series [11], this compound yielded a half-life of 74 min.
As for `O=C1C(Cl)=C(Cl)C(O)N1Cc1ccc(C(F)(F)F)cc1` (centres unmarked) [Compound 40, 3,4-dichloro-5-hydroxy-1-(4-(trifluoromethyl)benzyl)-1H-pyrrol-2(5H)-one], in series [4], the “Plasma stab. % remaning at 3 hrs” value was found to be 15.3 ± 2.5%. Also, the “VSVΔ51-GFP titers / replication in tumor specimens” value in [5] is “enhances replication in tumors”. The “impact on VSVΔ51 in normal tissue specimens” value in series [12] is “increases infection and replication in brain tissue”. The LD50 in [8] is 36 µM. In addition, the half-life in [11] came out at 32 min.
